Measurements reported in patent publication US7202254B2, “Antibacterial compounds: process for their preparation and pharmaceutical compositions containing them” (Dr. Reddy's Laboratories Limited, priority 2002, dated 2007).

| Structure (SMILES) | melting point [°C] |
| --- | --- |
| OCc1cn(-c2ccc(N3CCOCC3)c(F)c2)nn1 [Example 2, [1-(3-Fluoro-4-morpholin-4-yl-phenyl)-1H-[1,2,3]triazol-4-yl]-methanol] | 198 |
| [N-]=[N+]=NCc1cn(-c2ccc(N3CCOCC3)c(F)c2)nn1 [Example 12, 4-[4-(4-Azidomethyl-[1,2,3]triazol-1-yl)-2-fluorophenyl]-morpholine] | 90 |
| NCc1cn(-c2cc(F)c(N3CC[S+]([O-])CC3)c(F)c2)nn1 [Example 28, C-{1-[3,5-Difluoro-4-(1-oxo-1lambda*4*-thiomorpholin-4-yl)-phenyl]-1H-[1,2,3]triazol-4-yl}-methylamine] | 190 |
| CC(=O)NCc1cn(-c2cc(F)c(N3CCOCC3)c(F)c2)nn1 [Example 41, N-[1-(3,5-Difluoro-4-morpholin-4-yl-phenyl)-1H-[1,2,3]triazol-4-ylmethyl]-acetamide] | 218 |
| CC(=O)NCc1cn(-c2ccc(N3CCOCC3)c(F)c2)nn1 [Example 42, N-[1-(3-Fluoro-4-morpholin-4-yl-phenyl)-1H-[1,2,3]triazol-4-ylmethyl]-acetamide] | 218 |
| CC(=O)NCc1cn(-c2cc(F)c(N3CCSCC3)c(F)c2)nn1 [Example 43, N-[1-(3,5-Difluoro-4-thiomorpholin-4-yl-phenyl)-1H-[1,2,3]triazol-4-ylmethyl]-acetamide] | 210 |
| CC(=O)NCc1cn(-c2cc(F)c(N3CC[S+]([O-])CC3)c(F)c2)nn1 [Example 44, N-{1-[3,5-Difluoro-4-(1-oxo-1lambda*4*-thiomorpholin-4-yl)-phenyl]-1H-triazol-4-ylmethyl}-acetamide] | 203 |
| CC(=O)NCc1cn(-c2cc(F)c(N3CCS(=O)(=O)CC3)c(F)c2)nn1 [Example 45, N-{1-[4-(1,1-Dioxo-1lambda*6*-thiomorpholin-4-yl)-3,5-difluoro-phenyl]-1H-[1,2,3]triazol-4-ylmethyl}-acetamide] | 197 |
| CC(=O)NCc1cn(-c2ccc(N3CCSCC3)c(F)c2)nn1 [Example 46, N-[1-(3-Fluoro-4-thiomorpholin-4-yl-phenyl)-1H-[1,2,3]triazol-4-ylmethyl]-acetamide] | 207 |
| CC(=O)NCc1cn(-c2ccc(N3CC[S+]([O-])CC3)c(F)c2)nn1 [Example 47, N-{1-[3-Fluoro-4-(1-oxo-1lambda*4*-thiomorpholin-4-yl)-phenyl]-H-[1,2,3]triazol-4-ylmethyl}-acetamide] | 210 |
| COC(=O)NCc1cn(-c2ccc(N3CC[S+]([O-])CC3)c(F)c2)nn1 [Example 48, {1-[3-Fluoro-4-(1-oxo-1lambda*4*-thiomorpholin-4-yl)-phenyl]-1H-[1,2,3]triazol-4-ylmethyl}-carbamic acid methyl ester] | 218 |
| CC(=O)NCc1cn(-c2ccc(N3CCS(=O)(=O)CC3)c(F)c2)nn1 [Example 49, N-{1-[4-(1,1-Dioxo-1lambda*6*-thiomorpholin-4-yl)-3-fluoro-phenyl]H-triazol-4-ylmethyl}-acetamide] | 198 |
| O=CNCc1cn(-c2ccc(N3CC[S+]([O-])CC3)c(F)c2)nn1 [Example 50, N-{1-[3-Fluoro-4-(1-oxo-1lambda*4*-thiomorpholin-4-yl)-phenyl]-1H-[1,2,3]triazol-4-ylmethyl}-formamide] | 182 to 184 |
| CC(=S)NCc1cn(-c2ccc(N3CC[S+]([O-])CC3)c(F)c2)nn1 [Example 53, N-{1-[3-Fluoro-4-(1-oxo-1lambda*4*-thiomorpholin-4-yl)-phenyl]-1H-[1,2,3]triazol-4-ylmethyl}-thioacetamide] | 245 |
| COC(=S)NCc1cn(-c2cc(F)c(N3CC[S+]([O-])CC3)c(F)c2)nn1 [Example 57, 1-[3,5-Difluoro-4-(1-oxo-1lambda*4*-thiomorpholin-4-yl)-phenyl]-1H-{[1,2,3]triazol-4-ylmethyl}-thiocarbamic acid O-methyl ester] | 202 |
| COC(=S)NCc1cn(-c2ccc(N3CCC4(CC3)OCCO4)c(F)c2)nn1 [Example 62, {1-[4-(1,4-Dioxa-8-aza-spiro[4.5]dec-8-yl)-3-fluoro-phenyl]-1H-[1,2,3]triazol-4-ylmethyl}-thiocarbamic acid O-methyl ester] | 135 to 137 |
| COC(=S)NCc1cn(-c2ccc(N3CCS(=N)CC3)c(F)c2)nn1 [Example 63, {1-[3-Fluoro-4-(1-imino-1lambda*4*-thiomorpholin-4-yl)-phenyl]-1H-[1,2,3]triazol-4-ylmethyl}-thiocarbamic acid O-methyl ester] | 198 |
| CNC(=S)NCc1cn(-c2cc(F)c(N3CCOCC3)c(F)c2)nn1 [Example 64, 1-[1-(3,5-Difluoro-4-morpholin-4-yl-phenyl)-1H-[1,2,3]triazol-4-ylmethyl]-3-methyl-thiourea] | 181 |

| Structure (SMILES) | melting point [°C] |
| --- | --- |
| CCNC(=S)NCc1cn(-c2ccc(N3CC[S+]([O-])CC3)c(F)c2)nn1 [Example 65, 1-Ethyl-3-{1-[3-fluoro-4-(1-oxo-1lambda*4*-thiomorpholin-4-yl)-phenyl]-1H-[2,3]triazol-4-ylmethyl}-thiourea] | 204 |
| NNC(=S)NCc1cn(-c2ccc(N3CCSCC3)c(F)c2)nn1 [Example 66, 1-[3-fluoro-4-(4-thiomorpholinyl)phenyl]-1H-1,2,3-triazol-4-ylmethylamino-hydrazinomethanethione] | 174 to 176 |
| CSC(=S)NCc1cn(-c2ccc(N3CC[S+]([O-])CC3)c(F)c2)nn1 [Example 68, {1-[3-Fluoro-4-(1-oxo-1lambda*4*-thiomorpholin-4-yl)-phenyl]-1H-[1,2,3]triazol-4-ylmethyl}-dithiocarbamic acid methyl ester] | 184 |
| O=C(NC(=S)NCc1cn(-c2ccc(N3CCOCC3)c(F)c2)nn1)c1ccccc1 [Example 70, 1-Benzoyl-3-[1-(3-fluoro-4-morpholin-4-yl-phenyl)-1H-[1,2,3]triazol-4-ylmethyl]-thiourea] | 138 |
| O=C(NCc1cn(-c2ccc(N3CCOCC3)c(F)c2)nn1)c1cnccn1 [Example 71, Pyrazine-2-carboxylic acid [1-(3-fluoro-4-morpholin-4-yl-phenyl)-1H-[1,2,3]triazol-4-ylmethyl]-amide] | 215 |
| O=C(NCc1cn(-c2ccc(N3CCSCC3)c(F)c2)nn1)c1cnccn1 [Example 72, N-{1-[3-fluoro-4-(4-thiomorpholinyl)phenyl]-1H-1,2,3-triazol-4-ylmethyl}-pyrazine-2-carboxamide] | 216 to 218 |
| CSC(=S)OCc1cn(-c2ccc(N3CCOCC3)c(F)c2)nn1 [Example 73, Dithiocarbonic acid O-[1-(3-fluoro-4-morpholin-4-yl-phenyl)-1H-[1,2,3]triazol-4-ylmethyl]ester S-methyl ester] | 118 |
| O=C(NCc1cn(-c2ccc(N3CCSCC3)c(F)c2)nn1)c1ccccn1 [Example 75, N-{1-[3-Fluoro-4-(4-thiomorpholinyl)phenyl]-1H-1,2,3-triazol-4-ylmethyl}-pyridine-2-carboxamide] | 190 to 192 |
| NC(=S)NCc1cn(-c2ccc(N3CCOCC3)c(F)c2)nn1 [Example 76, [1-(3-Fluoro-4-morpholin-4-yl-phenyl)-1H-[1,2,3]triazol-4-ylmethyl]-thiourea] | 192 |
| NC(=S)NCc1cn(-c2ccc(N3CC[S+]([O-])CC3)c(F)c2)nn1 [Example 77, {1-[3-Fluoro-4-(1-oxo-1lambda*4*-thiomorpholin-4-yl)-phenyl]-1H-[1,2,3]triazol-4-ylmethyl}-thiourea] | 228 to 230 |
| CNC(=S)NCc1cn(-c2ccc(N3CC[S+]([O-])CC3)c(F)c2)nn1 [Example 78, 1-{1–[3-Fluoro-4-(1-oxo-1lambda*4*-thiomorpholin-4-yl)-phenyl]-1H-[1,2,3]triazol-4-ylmethyl}-3-methyl-thiourea] | 182 to 184 |
| O=C(NCc1cn(-c2ccc(N3CCOCC3)c(F)c2)nn1)C(Cl)Cl [Example 79, 2,2-Dichloro-N-[1-(3-fluoro-4-morpholin-4-yl-phenyl)-1H-[1,2,3]triazol-4-ylmethyl]-acetamide] | 190 |
| CS(=O)(=O)NCc1cn(-c2ccc(N3CC[S+]([O-])CC3)c(F)c2)nn1 [Example 80, N-{1-[3-Fluoro-4-(1-oxo-1lambda*4*-thiomorpholin-4-yl)-phenyl]-1H-[1,2,3]triazol-4-ylmethyl}-methanesulfonamide] | 174 to 176 |
| Fc1cc(-n2cc(CNC(=S)c3ccccn3)nn2)ccc1N1CCSCC1 [Example 81, N-{1-[3-fluoro-4-(−4-thiomorpholinyl)phenyl]-1H-1,2,3-triazol-4-ylmethyl}-pyridine-2-thiocarboxamide] | 158 to 160 |
| COC(=S)NCc1cn(-c2ccc(N3CCC(=O)CC3)c(F)c2)nn1 [Example 82, {1-[3-Fluoro-4-(4-oxo-piperidin-1-yl)-phenyl]-1H-[1,2,3]triazol-4-ylmethyl}-thiocarbamic acid O-methyl ester] | 145 to 147 |
| COC(=S)NCc1cn(-c2ccc(N3CCC(=NO)CC3)c(F)c2)nn1 [Example 83, {1-[3-Fluoro-4-(4-hydroxyimino-piperidin-1-yl)-phenyl]-1H-[1,2,3]triazol-4-ylmethyl}-thiocarbamic acid O-methyl ester] | 141 to 142 |
| COC(=S)NCc1cn(-c2ccc(N3CCC(=C(C#N)C#N)CC3)c(F)c2)nn1 [Example 84, {1-[4-(4-Dicyanomethylene-piperidin-1-yl)-3-fluoro-phenyl]-1H-[1,2,3]triazol-4-ylmethyl}-thiocarbamic acid O-methyl ester] | 198 |
| COC(=S)NCc1cn(-c2cc(F)c(N3CCC(=O)CC3)c(F)c2)nn1 [Example 85, {1-[3,5-Difluoro-4-(4-oxo-piperidin-1-yl)-phenyl]-1H-[1,2,3]triazol-4-ylmethyl}thiocarbamic acid O-methyl ester] | 175 to 176 |
